Results from patent US9284423B2, “Crosslinkable composition crosslinkable by real michael addition (RMA) reaction” (NUPLEX RESINS B.V., priority 2011, dated 2016).

Columns and labels:
[1] = Determination of Michael addition reactivity (Example 12): loss of X-H component in butyl acrylate/methanol at room temperature, by back-titration (GC for dimethylmalonate); assay type: physicochemical; settings: for Relative conversion rates (relative Michael addition reactivity: initial increase in % conversion, per minute): with strong base, same method as for succinimide; for Succinimide remaining (%): strong base (tetrabutylammonium hydroxide) added, % relative to theoretical level
Method: Subsequently, the concentration of succinimide is determined as a function of time by taking samples, neutralizing with a known excess of HCl in water, and backtitration with a KOH solution. […] Succinimide concentration is expressed as % relative to the theoretical level based on used amounts.

[2] = pKa defined in aqueous environment; cited from earlier work
[3] = butyl acrylate/methanol, room temperature

SMILES | Relative conversion rates (relative Michael addition reactivity: initial increase in % conversion, per minute) [1, 3] | pKa [2] | other results
c1nc[nH]n1 [1,2,4-triazole] | 0.91 % conversion, per minute | – | –
CC1(C)NC(=O)NC1=O [5,5-dimethylhydantoin] | 0.03 % conversion, per minute | 10.2 | –
c1ccc2[nH]nnc2c1 [benzotriazole] | 0.29 % conversion, per minute | 8.2 | –
CCOC(=O)CC(=O)OCC [diethylmalonate] | – | 13.0 | –
O=C1Nc2ccccc2C1=O [isatine] | – | 10.3 | –
C[N+](=O)[O-] [nitromethane] | – | 10.2 | –
O=C1CCC(=O)N1 [succinimide] | 0.33 % conversion, per minute | – | Succinimide acidic protons consumed ([1]; in about an hour, [succinimide]/[base]=5): 25%; Succinimide remaining (%) ([1]; time 3 min, [succinimide]/[base]=5, butyl acrylate/methanol, room temperature): 99%; Succinimide remaining (%) ([1]; time 30 min, [succinimide]/[base]=5, butyl acrylate/methanol, room temperature): 87%; Succinimide remaining (%) ([1]; time 60 min, [succinimide]/[base]=5, butyl acrylate/methanol, room temperature): 77%; Succinimide remaining (%) ([1]; time 120 min, [succinimide]/[base]=5, butyl acrylate/methanol, room temperature): 60%; Succinimide remaining (%) ([1]; time 180 min, [succinimide]/[base]=5, butyl acrylate/methanol, room temperature): 48%; Loss of succinimide N-H without base initiation ([1]; without base, butyl acrylate/methanol, room temperature, two weeks): no significant loss
O=c1cc[nH]c(=O)[nH]1 [uracil] | – | 9.9 | –
